{"source": "patent US5731160A", "about": "“Induction of antigen specific T-lymphocyte responses by stimulation with peptide loaded MHC class I molecules on antigen processing defective mammalian cell lines” (Rijksuniversiteit Leiden, priority 1992, dated 1998)", "key": {"T2 cells": {"test_system": "T2 cells", "assay": "51Cr release cytotoxicity assay of p53 peptide specific CTL clones on peptide loaded T2 target cells", "format": "cell-based, human", "details": "peptide titration", "procedure": "As target cells served T2 cells, labeled with 100 μCi ^51 Cr for 1 h at 37° C. […] The target cells were washed once more before adding them to the effector cells. Effector target ratio ranged from 20:1 to 2.5:1 in twofold dilution. […] Total duration of the incubation time was 4 h at 37° C.\nThe percentage ^51 Cr release was calculated by the formula: [formula] 7. Cloning of CTL by limiting dilution\nThe clones were tested for specificity on peptide loaded ^51 Cr labeled target cells ranging from E/T 20 to E/T 2.5 in twofold dilution steps."}, "174CEM.T2 cells": {"test_system": "174CEM.T2 cells", "assay": "Primary CTL response induction with p53 peptide loaded 174CEM.T2 cells and HLA-A2.1 positive PBL", "format": "cell-based, human", "details": "PBL from healthy non-immunized HLA-A2.1 positive donor; peptide 80 μg/ml", "procedure": "174CEM.T2 (T2) cells in a concentration of 2×10^6 per ml were incubated for 13 hours at 37° C. in a T25 flask (Falcon, Becton & Dickinson, Plymouth, England, cat. no. 3013) in serum-free Iscove's medium (Biochrom KG, Seromed, Berlin, Gemany, cat. no. F0465) with glutamine (2 mM, ICN Biochemicals Inc., Costa Mes, Calif., U.S.A., cat. no. 15-801-55) and antibiotics as mentioned under 2 and p53 peptide at a final concentration of 80 μg/ml. Subsequently the T2 cells were spun down and treated at a density of 20×10^6 cells/ml with Mitomycin C (final concentration 50 μg/ml) in serum-free RPMI 1640 (manufacturer see 2) medium during one hour at 37° C. Thereafter the T2 cells were washed three times im RPMI 1640. Primary CTL responses were induced by filling all wells of a 96-well-U-bottom plate (Costar, Cambridge, Mass., U.S.A., cat. no. 3799) with 1×10^5 Mitomycin-C treated T2 cells in 50 μl of medium (serum-free RPMI 1640 containing glutamine and antibiotics as mentioned before), containing peptide at a concentration of 80 μg/ml. To these stimulator cells were added 4×10^5 HLA-A2.1 positive PBL in 50 μl of medium to each well. Stimulator and responder cells were cocultured for 7 days at 37° C. in an humidified incubator (90% humidity) and 5% CO2 in air.\nOn days 7 and 14 after primary response induction (see 5) the PBL (responder cells) were restimulated with peptide. […]"}, "RMA-S cells": {"test_system": "RMA-S cells", "assay": "Induction of primary CTL responses in vitro with peptide-loaded RMA-S cells", "format": "cell-based, murine", "details": "for Induction of primary CTL response by peptide-loaded RMA-S cells: NWP SC of unprimed B6 mice, 5-day culture, RMA-S as stimulator cells", "procedure": "(§1) RMA-S or RMA cells were pre-cultured for 36 h at 22° C. or 37° C. in IMDM medium supplemented with 2% human pooled serum, penicillin (100 IU/ml), kanamycin (100 μg/ml), S and 2-ME (2×10^-5 M). […] Without further washing these (peptide-loaded) RMA-S cells were incubated 1:1(v/v) with C57BL/6 nylon wool-passed spleen cells (B6 NWP SC) in 24-well culture plates: 4×10^6 responder cells and 1×10^6 stimulator cells in 1 ml of culture medium per well in IMDM medium supplemented with 10% FCS, penicillin (100 IU/ml), kanamycin (100 μg/ml), and 2-ME(2×10^-5 M). For a primary CTL response NWP SC of non-immunized C57BL/6 mice were used.\n(§2) After 5 days of culture the effectors were harvested on a lymphoprep (Nycomed Pharma, Oslo, Norway) gradient and tested for cytotoxic function on 2000 ^51 Cr-labeled target cells ranging from E/T 50 to E/T 0.8 in twofold dilution steps. The percentage specific ^51 Cr release was calculated by the formula: [formula]\nBackground (medium) release was always <25% of maximal (2% Triton X-100) release. The SE of triplicate culture was always <5% specific ^51 Cr release. Cytolytic activity calculated from individual dose-response curves is expressed as lytic units per 10^6 effector cells. Calculations were performed using linear regression. As target cells served: B6 mouse embryo cells, treated for 2 days with 50 U/ml IFN-γ at 37° C., LPS-induced (30 μg/ml LPS-B, Bacto Lab., Difco, Detroit, Mich., added to spleen cells for 5 days at 37° C.) B cell blasts from C57BL/6 mice (LPS) or EL4 cell (thymoma cell line of C57BL/6 origin, expressing K^b and Db). […] Virus-infected target cells were prepared by incubating 10^7 target cells with 300 HAU of nonvirulent Sendai virus in 1 ml of medium for 1 h or 12 h before labeling with ^51 Cr (28).\nInduction of primary CTL responses in vitro with peptide-loaded RMA-S cells. NWP SC of B6 unprimed mice were stimulated 1:1 (v/v) once in vitro with RMA-S cells, pre-cultured for 36 h at 22° C., only or incubated with 50 μM A16 peptide or 50 μM S16 peptide. Peptide was present during the 5-day culture at 25 μM concentration. The effectors were harvested and tested on B6 mouse embryo cells (MEC) and B6 LPS-induced B cell blasts (LPS) as target cells, without or with 50 μM A16 and S16, respectively.\nPeptide titration at induction level (A) and at target level (B) of primary CTL induced by peptide-loaded RMA-S cells.\nPrimary and secondary CTL responses induced by peptide-loaded RMA-S cells. For primary CTL responses NWP SC of B6 unprimed mice were used (A and B). For secondary CTL responses NWP SC of B6 mice were primed once i.p. with non-virulent Sendai virus (C and D)."}, "target cells": {"test_system": "target cells", "details": "references 26 and 12; cited from earlier work"}, "RMA cells": {"test_system": "RMA cells", "assay": "Induction of primary CTL responses with peptide-loaded parental RMA cells", "format": "cell-based, murine", "details": "any peptide concentration, pre-culture at 22° C. or 37° C.", "procedure": "as §1, §2\nBackground (medium) release was always <25% of maximal (2% Triton X-100) release. The SE of triplicate culture was always <5% specific ^51 Cr release. Cytolytic activity calculated from individual dose-response curves is expressed as lytic units per 10^6 effector cells. Calculations were performed using linear regression. […]"}, "[1]": {"test_system": "MHC class I molecules (H-2) on RMA and RMA-S cells", "assay": "Direct peptide binding studies with 125I-labeled S9 on RMA and RMA-S cells", "set-up": "species or system murine", "procedure": "RMA and RMA-S cells were cultured for 36 h at 26° C. in Iscove's medium supplemented with 2% human pooled serum. […] MHC class I molecules were immunoprecipitated using rabbit anti-H-2^b serum (29). Class I-associated peptide was quantitated by γ-spectrometry. For determination of H-2 levels 10^6 cells were iodinated using lactoperoxidase-catalyzed iodination. Subsequently cells were washed three times in PBS and lysed in TRITON X-100 lysis buffer. H-2 antigens were precipitated from equal amounts of trichloro-acetic acid (TCA)-precipitable counts (30) using rabbit anti-H-2^b serum (29). Immunoprecipitates were analysed by SDS-PAGE on 12% gels, and gels were exposed to Kodak (Rochester, N.Y.) X-AR5 (photographic film) films. Results were expressed in arbitrary units. One unit is defined as the level of cell surface H-2 per cell and peptide binding per cell, respectively on RMA cells.\nDirect peptide binding studies on RMA and RMA-S cells. […] MHC class I molecules were immunoprecipitated using rabbit anti-H-2^b serum. Class I-associated peptide was quantitated by γ-spectrometry. Results are means of duplicate experiments and shown in dpm after subtraction of normal serum control precipitates (A). In (B) 26° C. pre-cultured RMA and RMA-S cells were surface iodinated and H-2 antigens were precipitated from equal amounts of TCA-precipitable counts using rabbit anti-H-2^b serum. The amount of cell surface H-2 on RMA-S cells is depicted relative to the amount on […]. […] The amount of class I-associated peptide on RMA-S cells is depicted relative to the amount on RMA-S cells, which is set at 1 arbitrary unit. Similar results were obtained in three independent experiments."}, "Sendai virus": {"test_system": "Sendai virus", "details": "reference 12, cited from earlier work"}, "HLA-A2.1": {"target": "T1, HLA-A2.1 (Homo sapiens, UniProt P04439)", "T1 construct": "detected by antibody BB7.2", "T1 sequence (P04439 25-365)": "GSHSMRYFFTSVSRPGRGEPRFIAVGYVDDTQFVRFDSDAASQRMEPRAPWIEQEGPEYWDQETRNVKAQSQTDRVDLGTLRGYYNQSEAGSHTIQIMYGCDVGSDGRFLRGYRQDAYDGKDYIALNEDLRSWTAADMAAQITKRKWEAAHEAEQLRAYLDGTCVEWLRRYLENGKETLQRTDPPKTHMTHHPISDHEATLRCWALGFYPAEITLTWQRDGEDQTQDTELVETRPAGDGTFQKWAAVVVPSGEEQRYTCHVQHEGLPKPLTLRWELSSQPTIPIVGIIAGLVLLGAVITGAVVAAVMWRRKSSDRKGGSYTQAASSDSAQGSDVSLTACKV", "T1 sequence (P61769 21-119 partner)": "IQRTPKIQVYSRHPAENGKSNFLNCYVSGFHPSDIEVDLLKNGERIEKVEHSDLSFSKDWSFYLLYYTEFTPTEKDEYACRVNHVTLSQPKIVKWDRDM", "assay": "Peptide binding to HLA-A2.1 on (174.CEM) T2 cells", "details": "200 μg/ml peptide, BB7.2 immunofluorescence", "procedure": "Of this suspension 40 μl was put into a V bottomed 96 well plate (Greiner GmbH, Frickenhausen, Germany: 651101) together with 10 μl of the individual peptide dilutions (of 1 mg/ml). […] After a centrifuge round of 1200 rpm the pellet was resuspended in 50 μl of saturating amounts of HLA-A2.1 specific mouse monoclonal antibody BB7.2 for 30 minutes at 4° C."}, "[2]": {"details": "700 nM 125I-S9, 1 h, 26° C., FIG. 4B"}}, "note": "Read-outs that look alike come from different tables or passages of the source.", "data": [{"compound": "CC(C)C[C@H](NC(=O)[C@@H](N)CC(C)C)C(=O)NCC(=O)N[C@@H](CCCNC(=N)N)C(=O)N[C@@H](CC(N)=O)C(=O)N[C@@H](CO)C(=O)N[C@@H](Cc1ccccc1)C(=O)N[C@@H](CCC(=O)O)C(=O)N[C@H](C(=O)O)C(C)C", "note": "[A8]", "values": [{"measurement": "peptide concentration sufficient for target cell sensitization", "setting": "T2 cells", "result": 20, "unit": "ng/mL"}, {"measurement": "Generation of CTL response against autologous peptide in vitro", "setting": "174CEM.T2 cells", "result": "possible to generate a CTL response against an autologous peptide"}]}, {"compound": "CDSGPSNTPPEIHPW (CDSGPSNTPPEIHPVV) [A16]", "values": [{"measurement": "Induction of primary CTL response by peptide-loaded RMA-S cells", "setting": "RMA-S cells", "result": "Primary CTL responses could be induced"}, {"measurement": "Sensitization of target cells for lysis by CTL", "setting": "target cells", "result": "sensitize target cells for lysis by a CTL clone"}]}, {"compound": "FAPGNYPAL [S9, Sendai virus nucleoprotein peptide of 9 aa]", "values": [{"measurement": "minimally required concentration for primary response induction by peptide-loaded RMA-S cells", "setting": "RMA-S cells; FIG. 3A and B", "result": 1, "unit": "µM"}, {"measurement": "Induction of primary CTL response by peptide-loaded RMA-S cells", "setting": "RMA-S cells", "result": "primary response was obtained only by stimulation of T cells with peptide-loaded RMA-S cells"}, {"measurement": "Induction of primary CTL response by peptide-loaded RMA cells", "setting": "RMA cells", "result": "non-stimulatory"}, {"measurement": "difference in peptide binding per cell between RMA and RMA-S cells", "setting": "[1]; [2]", "result": 2.5, "unit": "fold"}, {"measurement": "peptide binding per H-2 molecule on RMA-S cells versus RMA cells", "setting": "[1]; [2]", "result": "tenfold higher"}, {"measurement": "peptide concentration giving comparable binding, on RMA-S (26° C.)", "setting": "[1]; comparable to RMA at 1 μM, FIG. 4A", "result": 1, "unit": "nM"}, {"measurement": "peptide concentration giving comparable binding, on RMA (26° C.)", "setting": "[1]; comparable to RMA-S at 1 nM, FIG. 4A", "result": 1, "unit": "µM"}, {"measurement": "amount of peptide bound to RMA cells at 20 μM", "setting": "[1]; compared with RMA-S cells at 1 μM", "result": "did not reach the amount of peptide bount to RMA-S cells observed at 1 μM"}]}, {"compound": "HGEFAPGNYPALWSYA [S16]", "values": [{"measurement": "Induction of primary CTL response by peptide-loaded RMA-S cells", "setting": "RMA-S cells", "result": "Primary CTL responses could be induced"}, {"measurement": "Induction of CTL memory in vivo by vaccination with peptide", "setting": "Sendai virus", "result": "induces CTL memory in vivo"}, {"measurement": "Protection against lethal Sendai virus infection", "setting": "Sendai virus", "result": "induce protective immunity against a lethal Sendai virus infection"}, {"measurement": "Protection against lethal Sendai virus infection", "setting": "Sendai virus; listed as Sendai virus 16-mer peptide", "result": "protection against otherwise lethal Sendai virus doses"}, {"measurement": "Sensitization of target cells for lysis by CTL", "setting": "target cells", "result": "sensitize target cells for lysis by specific H-2K^b -restricted CTL"}]}, {"compound": "RMPEAAPPV [D6]", "values": [{"measurement": "Binding to HLA-A2.1", "setting": "HLA-A2.1", "result": "bind to the HLA-A2.1 molecule"}]}]}
